Here are results for 13 compounds from US4281121A, “1,3,4-Thiadiazole-2-carboxylic acid derivatives, process for making the same and fungicidal and nematocidal compositions containing same” (Schering Aktiengesellschaft, priority 1978, dated 1981).

The subject of one experiment is Pythium ultimum. The experiment in a line: Threshold concentration test for use of the compounds against Pythium ultimum (infested soil, garden peas). The settings on record: for root evaluation (1-4): 3 weeks; for number of sound peas: 20 grains per dish, 3 weeks at 20-24° C. The format is in vivo. Also noted: key to root evaluation (1-4): 4: white roots without fungous necrosis; 3: white roots, minor fungous necrosis; 2: brown roots, already more pronounced fungous necrosis; 1: heavy fungous necrosis, roots rotted. The procedure:
Threshold concentration test for use of the compounds against Pythium ultimum
A 20% concentration of certain pulverulent active agents as listed below were mixed in uniform manner into a soil which had been heavily infested by Pythium ultimum. The thus treated soil was then placed into clay dishes of a capacity of 0.5 l earth. Without any intermediate time lapse 20 grain of garden peas (Pisum sativum L. convar. medullare Alef.) of the type "Wunder von Kelvedon" were then seeded into each of the clay dishes. After a cultivation period of three weeks at 20° to 24° C. in a hothouse the number of sound peas was determined and a root evaluation was carried out. The active agents amounts and results appear from the following table.
(§1) The root evaluation was carried out on a scale from 1 to 4 as follows: […]

In another experiment the test system is Helminthosporium gram. The settings on record: about 5 weeks.
For a further experiment, the system named is Plasmopara viticola. In words: Prophylactic leaf treatment of grapevines in the hothouse against Plasmopara viticola. The format is in vivo. Here is the method: Effects of prophylactic leaf treatment of grapevines in the hothouse against Plasmopara viticola
Young grapevine plants having from 5 to 8 leaves were sprayed dripping wet with the concentrations of active agents stated in the table below. After drying of the spray deposit the leaves were sprayed with an aqueous suspension of sporangia of the fungus (about 20,000 per ml); the spraying was applied to the bottom side of the leaves. The plants were then immediately incubated in a hothouse at a temperature of 22° to 24° C. and at maximum water saturation in the atmosphere. Beginning with the second day the humidity of the air was reduced for 3 to 4 days to normal level (30 to 70% saturation) and was then maintained for another day on the level of full saturation. Subsequently, the percentage portion of the fungus infested surface of each leaf was noted and the average per treatment was calculated in order to determine the fungicidal activity. This was done on the basis of the following formula: [formula]
The active compounds were applied in the form of a 20% concentration spray powder.

A further experiment relates to Tilletia caries. The experiment in a line: Treatment of oat seeds infested with Tilletia caries (spore germination). The format is in vivo.
The test system of experiment [1] is Helminthosporium gramineum. In words: Seed treatment in open field tests for infestation by Helminthosporium gramineum (barley). The format is in vivo. The settings on record: summer barley, about 3 months. Here is the method:
Seed treatment in open field tests for infestation by Helminthosporium gramineum
The active agents were used in the form of pulverulent compositions. After about 8 months in case of winter barley and after about 3 months in case of summer barley the infested plants were counted and the activity was calculated by the formula [formula]

The test system of the next experiment is Fusarium avenaceum. In words: Threshold concentration test in case of Fusarium avenaceum (infested soil, garden peas). The settings on record: for number of sound peas: 20 grains per dish, 18 days at 20-24° C.; for root evaluation (1-4): 18 days. The format is in vivo. Here is the method: Threshold concentration test in case of Fusarium avenaceum
A 20% pulverulent active agent of the type further identified in the table below was mixed in uniform manner with a soil which had been heavily infested with Fusarium avenaceum. The thus treated soil was then placed into clay dishes of a capacity of 0.5 l of earth. Each dish was seeded without any intervening time with 20 grains of garden peas (Pisum sativum L. convar. medullare Alef.) of the type "Wunder von Kelvedon". After a cultivation time of 18 days at 20° to 24° C. in a hot house the number of sound peas was determined and a root evaluation was carried out. The active agents employed, the amounts and results appear from the following table.
as §1

Another experiment relates to Piricularia oryzae. The format is in vivo. The following applies: 5 days.
Setting [2] is: concentration of active agent 0.025 (unit not given).
Setting [3] is: 25 g active agent/100 kg barley.
[4] abbreviates: 50 g active agent/100 kg barley.
Setting [5] is: 100 g active agent/100 kg barley.
The mark [6] stands for this setting: concentration of active agent 0.001 (unit not given).
Where [7] appears, read: concentration of active agent 0.005 (unit not given).
Where [8] appears, read: concentration of active agent 0.1 (percentages).

Read-outs that look alike come from different tables or passages of the source.

Turning to `CCNC(=O)c1nnc(S(=O)(=O)CC)s1` [5-ethylsulfonyl-1,3,4-thiadiazole-2-carboxylic acid ethylamide], the “root evaluation (1-4)” value in the experiment on Pythium ultimum (20 mg/l soil), in the experiment with Pythium ultimum (40 mg/l soil) and in the experiment on Pythium ultimum (80 mg/l soil) was 4 in each case. The “number of sound peas” value came out at 15 with Pythium ultimum (20 mg/l soil), 16 in the experiment with Pythium ultimum (40 mg/l soil) and 16 in the experiment with Pythium ultimum (80 mg/l soil). Moreover, the “% activity” value in the experiment with Helminthosporium gram (20 g active agent per 100 kg) amounted to 100%; with Helminthosporium gram (50 g active agent per 100 kg), 100%; with Plasmopara viticola (setting [2]), 98%; in the experiment on Tilletia caries (10 g active agent per 100 kg), 99.3%; with Tilletia caries (20 g active agent per 100 kg) it was 100%; in the experiment on Tilletia caries (50 g active agent per 100 kg), 100%. In addition, the “% activity” value in experiment [1] (setting [3]) came out at 98%; in experiment [1] (setting [4]), 99.5%; in experiment [1] (setting [5]), 100%.

As for `CCS(=O)(=O)c1nnc(C(=O)N2CCOCC2)s1` [5-ethylsulfonyl-1,3,4-thiadiazole-2-carboxylic acid-(N,N-3-oxapentamethyleneamide], the “% activity” value was 99% with Helminthosporium gram (10 g active agent per 100 kg); 100% in the experiment on Helminthosporium gram (20 g active agent per 100 kg); 100% in the experiment with Helminthosporium gram (50 g active agent per 100 kg); 100% in the experiment with Tilletia caries (50 g active agent per 100 kg); 99.3% in experiment [1] (setting [4]).

On to `CC[S+]([O-])c1nnc(C#N)s1` (stereo not shown) [5-ethylsulfinyl-1,3,4-thiadiazole-2-carbonitrile], for which the “root evaluation (1-4)” value with Pythium ultimum (20 mg/l soil), in the experiment with Pythium ultimum (40 mg/l soil), with Pythium ultimum (80 mg/l soil), in the experiment on Fusarium avenaceum (25 mg/l soil), in the experiment on Fusarium avenaceum (50 mg/l soil) and in the experiment on Fusarium avenaceum (100 mg/l soil) was 4 each time. Also, the “number of sound peas” value is 20 in the experiment on Pythium ultimum (20 mg/l soil); 19 in the experiment on Pythium ultimum (40 mg/l soil); 19 in the experiment with Pythium ultimum (80 mg/l soil); 19 with Fusarium avenaceum (25 mg/l soil); 20 in the experiment on Fusarium avenaceum (50 mg/l soil); 20 in the experiment on Fusarium avenaceum (100 mg/l soil). Further, the “% activity” value was 98% with Helminthosporium gram (10 g active agent per 100 kg); 100% in the experiment on Helminthosporium gram (20 g active agent per 100 kg); 100% in the experiment on Helminthosporium gram (50 g active agent per 100 kg); 89% in the experiment with Plasmopara viticola (setting [6]); 96% with Plasmopara viticola (setting [7]); 100% in the experiment with Plasmopara viticola (setting [2]). Besides, the “% activity” value is listed as 99.8% in the experiment on Tilletia caries (10 g active agent per 100 kg), 100% in the experiment on Tilletia caries (20 g active agent per 100 kg), 100% with Tilletia caries (50 g active agent per 100 kg) and 100% in experiment [1] (setting [4]).

Regarding `CCCS(=O)(=O)c1nnc(C(=O)OCC)s1` [5-propylsulfonyl-1,3,4-thiadiazole-2-carboxylic acid-ethylester], in the experiment with Piricularia oryzae (setting [8]), the “% activity” value stood at 93%.

As for `CCC(C)S(=O)(=O)c1nnc(C(N)=O)s1` (stereo not shown) [5-sec.-butylsulfonyl-1,3,4-thiadiazole-2-carboxamide], the results for the “% activity” value (with Helminthosporium gram (50 g active agent per 100 kg); in experiment [1] (setting [4])) were 97% and 94%, respectively.

For the compound `CN(CCC(N)CC(=O)NC1C=CC(n2ccc(N)nc2=O)OC1C(=O)O)C(=N)N` (stereo not shown) [Blasticidin-S, reference compound], the figures for the “% activity” value in the experiment with Piricularia oryzae (concentration of active agent 0.02 (percentages)) and with Piricularia oryzae (setting [8]) were 90% and 97%, respectively.

`CC(C)S(=O)(=O)c1nnc(C(N)=O)s1` [5-isopropylsulfonyl-1,3,4-thiadiazole-2-carboxamide]: the “root evaluation (1-4)” value with Pythium ultimum (20 mg/l soil), with Pythium ultimum (40 mg/l soil) and in the experiment on Pythium ultimum (80 mg/l soil) was 4 in each case. Besides, the “number of sound peas” value in the experiment with Pythium ultimum (20 mg/l soil) is on record as 17; in the experiment on Pythium ultimum (40 mg/l soil) it was 18; in the experiment with Pythium ultimum (80 mg/l soil) it was 19. In the experiment with Piricularia oryzae (setting [8]), the “% activity” value was 40%.

For the compound `CCCCN(C)C(=O)c1nnc(S(=O)(=O)CC)s1` [5-ethylsulfonyl-1,3,4-thiadiazole-2-carboxylic acid-(N-butyl,N-methyl)-amide], the “% activity” value in the experiment with Helminthosporium gram (20 g active agent per 100 kg) is 100%; in the experiment on Helminthosporium gram (50 g active agent per 100 kg) it was 100%; in the experiment on Plasmopara viticola (setting [6]), 100%; in the experiment on Plasmopara viticola (setting [7]), 100%; in the experiment with Plasmopara viticola (setting [2]), 100%; with Tilletia caries (10 g active agent per 100 kg) it was 98%. Further, the “% activity” value in the experiment on Tilletia caries (20 g active agent per 100 kg) is 100%; in the experiment with Tilletia caries (50 g active agent per 100 kg), 100%; in experiment [1] (setting [3]), 94%; in experiment [1] (setting [4]), 96.9%; in experiment [1] (setting [5]) it was 99.5%.

In the case of `C=CCNC(=O)c1nnc(S(=O)(=O)CCC)s1` [5-propylsulfonyl-1,3,4-thiadiazole-2-carboxylic acid-allylamide], the “root evaluation (1-4)” value in the experiment with Pythium ultimum (20 mg/l soil) came to 3; in the experiment on Pythium ultimum (40 mg/l soil), 4; in the experiment with Pythium ultimum (80 mg/l soil), 4. The “number of sound peas” value came out at 13 in the experiment with Pythium ultimum (20 mg/l soil), 15 in the experiment with Pythium ultimum (40 mg/l soil) and 15 in the experiment on Pythium ultimum (80 mg/l soil). The “% activity” value with Piricularia oryzae (setting [8]) turned out to be 93%; in the experiment with Tilletia caries (10 g active agent per 100 kg), 99.3%; with Tilletia caries (20 g active agent per 100 kg), 99.7%; in the experiment on Tilletia caries (50 g active agent per 100 kg) it was 100%.

As for `CCS(=O)(=O)c1nnc(C(=O)NC2CC2)s1` [5-ethylsulfonyl-1,3,4-thiadiazole-2-carboxylic acid-cyclopropylamide], the “% activity” value worked out at 85% in the experiment with Tilletia caries (10 g active agent per 100 kg), 100% in the experiment on Tilletia caries (20 g active agent per 100 kg), 100% in the experiment on Tilletia caries (50 g active agent per 100 kg) and 100% in experiment [1] (200 g active agent/100 kg barley).

Consider `COCCCNC(=O)c1nnc(S(C)(=O)=O)s1` [5-methylsulfonyl-1,3,4-thiadiazole-2-carboxylic acid-(3-methoxypropyl)-amide], for which the entries for the “root evaluation (1-4)” value in the experiment with Pythium ultimum (20 mg/l soil), with Pythium ultimum (40 mg/l soil) and in the experiment with Pythium ultimum (80 mg/l soil) were 1, 4 and 4, respectively. Also, the “number of sound peas” value with Pythium ultimum (20 mg/l soil) was determined as 9; with Pythium ultimum (40 mg/l soil), 20; in the experiment on Pythium ultimum (80 mg/l soil), 19. For the same compound, in the experiment on Piricularia oryzae (setting [8]), the “% activity” value amounted to 90%.

As to `C=CCNC(=O)c1nnc([S+](C)[O-])s1` (stereo not shown) [5-methylsulfinyl-1,3,4-thiadiazole-2-carboxylic acid-allylamide], the “root evaluation (1-4)” value with Pythium ultimum (20 mg/l soil), in the experiment with Pythium ultimum (40 mg/l soil) and in the experiment on Pythium ultimum (80 mg/l soil) was 4 throughout. In addition, the “number of sound peas” value in the experiment on Pythium ultimum (20 mg/l soil) is 20; in the experiment with Pythium ultimum (40 mg/l soil) it was 19; in the experiment with Pythium ultimum (80 mg/l soil), 18. The “% activity” value with Helminthosporium gram (10 g active agent per 100 kg) stood at 94%; in the experiment on Helminthosporium gram (20 g active agent per 100 kg), 99%; with Helminthosporium gram (50 g active agent per 100 kg), 100%; in the experiment on Plasmopara viticola (setting [2]), 90%; in the experiment with Tilletia caries (10 g active agent per 100 kg), 99.2%; in the experiment with Tilletia caries (20 g active agent per 100 kg), 100%. Moreover, the “% activity” value (in the experiment with Tilletia caries (50 g active agent per 100 kg); in experiment [1] (setting [4])) was 100% throughout.

Consider `CCC[S+]([O-])c1nnc(C#N)s1` (stereo not shown) [5-propylsulfinyl-1,3,4-thiadiazole-2-carbonitrile], for which the “root evaluation (1-4)” value in the experiment on Pythium ultimum (20 mg/l soil) turned out to be 1; with Pythium ultimum (40 mg/l soil) it was 4; in the experiment on Pythium ultimum (80 mg/l soil) it was 4; in the experiment with Fusarium avenaceum (25 mg/l soil) it was 4; in the experiment on Fusarium avenaceum (50 mg/l soil), 4; in the experiment with Fusarium avenaceum (100 mg/l soil), 4. In addition, the “number of sound peas” value in the experiment with Pythium ultimum (20 mg/l soil) was determined as 9; with Pythium ultimum (40 mg/l soil) it was 16; in the experiment with Pythium ultimum (80 mg/l soil) it was 18; in the experiment on Fusarium avenaceum (25 mg/l soil), 19; in the experiment on Fusarium avenaceum (50 mg/l soil), 20; in the experiment with Fusarium avenaceum (100 mg/l soil) it was 19. Further, the “% activity” value in the experiment on Helminthosporium gram (20 g active agent per 100 kg) is 87%; in the experiment with Helminthosporium gram (50 g active agent per 100 kg), 99%; in the experiment with Plasmopara viticola (setting [6]) it was 100%; in the experiment with Plasmopara viticola (setting [7]) it was 100%; with Plasmopara viticola (setting [2]) it was 100%; in the experiment on Tilletia caries (10 g active agent per 100 kg), 99%. The “% activity” value was determined as 100% in the experiment with Tilletia caries (20 g active agent per 100 kg), 100% with Tilletia caries (50 g active agent per 100 kg) and 99.3% in experiment [1] (setting [4]).
